The GI50 is the concentration that inhibits growth by half.

Assay [1] deals with BT549. The assay is described as follows: CellTiter-Glo cell viability assay, single agents, three days. It counts as cell-based. As to conditions: Homo sapiens, BT-549, 72 h; for Emax: read-out: Max Inhibition; for GI50: BT549, three days, CellTiter-Glo. For orientation: ATP-based viability assays read luminescence as a measure of living cells.
The test system of assay [2] is HS578T. Described as above. In kind it is cell-based. As to conditions: Homo sapiens, Hs-578T, 72 h; for Emax: read-out: Max Inhibition.
Assay [3] concerns MDAMB231. The description is as above. It counts as cell-based. Conditions: Homo sapiens, MDA-MB-231, 72 h; for Emax: read-out: Max Inhibition; for GI50: MDAMB231, three days, CellTiter-Glo.
For assay [4], the system named is MDAMB468. The assay is described as above. It counts as cell-based. As to conditions: Homo sapiens, MDA-MB-468, 72 h; for Emax: read-out: Max Inhibition; for GI50: MDAMB468, three days, CellTiter-Glo.
Assay [5] relates to T47D. Described as above. It counts as cell-based. Conditions: Homo sapiens, 72 h; for Emax: read-out: Max Inhibition.
The test system of assay [6] is 60 cancer cell lines of different tissues of origin. Put plainly: Non-bias 5x4 checkerboard combination screen of TAS108 with 30 chemotherapeutic agents. In kind it is cell-based. Details: ES: synergistic effect size: scale not given here. Conditions: for ES: synergistic effect size: in combination with TAS-108, meta analysis across doses and 60 cell lines; for synergy with TAS-108 across the cell line panel (in words): in combination with TAS-108. From the text: We used 5×4 factorial (checkerboard) design. The combinations were screened against 60 cancer cell lines of different tissues of origin, including melanoma, ovarian, CNS, renal, lung, breast, colon, prostate, and leukemia cancers, represented by cell lines including LOXIMVI, M14,MDAMB468, HT29, NCIH522, HS578T, RPMI8226, HOP92, HL60, OVCAR8, SR, SKMEL2, PC3, HOP62, HCC2998,786O, U251, OVCAR3, NCIH23, T47D, SF295, MOLT4, HCT15, SF539, BT549, SN12C, KM12, ADRRES, A498, NCIH226, NCIH322M, OVCAR5, MALME, OVCAR4, RXF393, SW620, CCRFCEM, UACC62, ACHN, SKOV3, SF268, EKVX, A549, NCIH460, IGROV1, SNB75, UACC257, UO31, HCT116, TK10, K562, SKMEL28, COLO205, SNB19, MDAMB231, DU145, CAKI1, MDAMB435, and MCF7.
After quantifying the degree of synergy for specified doses of compounds within each individual cell line, we used meta analysis to aggregate those effects across doses and the cell line panel (Table 1).

In assay [7] the test system is MCF7. The assay is described as follows: CellTiter-Glo cell viability assay, single agents, three days. In kind it is cell-based. Conditions: Homo sapiens; for Emax: read-out: Max Inhibition.
The test system of assay [8] is human mammary carcinoma cell lines. Put plainly: Combination screen of TAS-108 with a second compound, all six breast lines. Conditions: number of the six breast cell lines with synergy, in combination with TAS-108.
Protocol: (§1) Cells were treated with compounds alone or in combination for three days and CellTiter-Glo® Luminescent Cell Viability Assay (Promega Corp.) was used as the endpoint to measure cell viability.
(§2) Cells were cultured in RPMI with 10% fetal bovine serum and used between passage 2 and passage 20.
(§3) Other compounds used were purchased from commercial sources (Sigma, AK Scientific). 40 mM Compound stocks in 100% DMSO were made. Master plates were made with Janus (PerkinElmer), then further diluted and added to the cell plates with Matrix Platemate (Thermo) on Day 0.
(§4) CellTiter-Glo® Luminescent Cell Viability Assay (Promega Corp.) was used to measure ATP as an indicator of viable cells on Day 3 using Envision (PerkinElmer) and back up plate reader Analyst HT (MDS) and Gen5 (BioTek).
(§5) Relative Luminescent Units (RLU) were plotted against corresponding drug concentrations and fitted with a standard four parameter sigmoidal curve with custom coded R program. Percentage growth inhibition is calculated as: [(Ti−Tz)/(C−Tz)]×100 for concentrations for which Ti≧Tz and [(Ti−Tz)/Tz]×100 for concentrations for which Ti<Tz.
(§6) Twenty-five doses were tested for each pair of combinations.
(§7) N: no synergistic effect; Y: synergistic effect; y: weak synergistic effect.
Assay [9] relates to HS 578T. Put plainly: Combination screen of TAS-108 with a second compound, CellTiter-Glo. Conditions: in combination with TAS-108.
Protocol: as §1, §2, §3, §4, §5, §6, §7
[10] abbreviates: HS578T, three days, CellTiter-Glo, read-out: GI50.
[11] abbreviates: three days, CellTiter-Glo, read-out: GI50.
[12] abbreviates: 72 h, MCF7, highest dose tested.
[13] abbreviates: 72 h, MCF7, three days, CellTiter-Glo, read-out: GI50.

“Also recorded” adds a separate entry of the source. Read-outs that look alike come from different tables or passages of the source.

In the case of `Cc1nc(Nc2ncc(C(=O)Nc3c(C)cccc3Cl)s2)cc(N2CCN(CCO)CC2)n1` [Dasatinib], the Emax in assay [1] (BT549, highest dose tested) is 51%; in [2] (HS578T, highest dose tested), 79%; in assay [3] (MDAMB231, highest dose tested), 82%; in assay [4] (MDAMB468, highest dose tested) it was 40%; in assay [5] (highest dose tested), 37%. Further, the concentration for 50% growth inhibition (GI50) is 0.058 µM in [1]; 0.015 µM in assay [2] (setting [10]); 0.0099 µM in assay [3]; 16 µM in assay [4]; 0.86 µM in assay [5] (setting [11]).

Consider `Nc1ccn([C@@H]2O[C@H](CO)[C@@H](O)[C@@H]2O)c(=O)n1` [Cytarabine], for which, in assay [6], the “ES: synergistic effect size” value was −0.008.

For `CS(=O)(=O)CCNCc1ccc(-c2ccc3ncnc(Nc4ccc(OCc5cccc(F)c5)c(Cl)c4)c3c2)o1` [Lapatinib], the Emax in [3] (MDAMB231, highest dose tested) is 98%; in assay [4] (MDAMB468, highest dose tested), 99%; in assay [5] (highest dose tested), 31%. Moreover, the GI50 was 14 µM in assay [3], 1.9 µM in assay [4] and 5.8 µM in assay [5] (setting [11]).

In the case of `CC(=O)O[C@@]12CO[C@@H]1C[C@H](O)[C@@]1(C)C(=O)[C@H](O)C3=C(C)[C@@H](OC(=O)[C@H](O)[C@@H](NC(=O)OC(C)(C)C)c4ccccc4)C[C@@](O)([C@@H](OC(=O)c4ccccc4)[C@H]21)C3(C)C` [Docetaxel], in [6], the “synergy with TAS-108 across the cell line panel (in words)” value was “synergy was consistently found; also recorded: significant synergy” and the “ES: synergistic effect size” value amounted to 0.23.

In the case of `CO[C@H]1C[C@@H]2CC[C@@H](C)[C@@](O)(O2)C(=O)C(=O)N2CCCC[C@H]2C(=O)O[C@H]([C@H](C)C[C@@H]2CC[C@@H](O)[C@H](OC)C2)CC(=O)[C@H](C)/C=C(\C)[C@@H](O)[C@@H](OC)C(=O)[C@H](C)C[C@H](C)/C=C/C=C/C=C/1C` [Rapamycin], the Emax was 99% in assay [1] (BT549, highest dose tested); 41% in assay [2] (HS578T, highest dose tested); 55% in assay [7] (setting [12]); 95% in [3] (MDAMB231, highest dose tested); 100% in assay [4] (MDAMB468, highest dose tested); 45% in [5] (highest dose tested). Moreover, the GI50 in [1] is 0.22 µM; in assay [2] (setting [10]) it was 1 µM; in [7] (setting [13]), 0.054 µM; in assay [3], 11 µM; in [4], 0.063 µM; in assay [5] (setting [11]), 0.047 µM.

As to `N.N.O=C([O-])C1(C(=O)[O-])CCC1.[Pt+2]` [Carboplatin], the “ES: synergistic effect size” value in assay [6] is on record as −0.004.

Regarding `O=C(CCCCCCC(=O)Nc1ccccc1)NO` [Vorinostat], the “ES: synergistic effect size” value in [6] was 0.004.

As to `C[C@]12CC[C@@H]3c4ccc(O)cc4C[C@@H](CCCCCCCCC[S+]([O-])CCCC(F)(F)C(F)(F)F)[C@H]3[C@@H]1CC[C@@H]2O` (stereo partly shown) [Faslodex], the Emax in [7] (setting [12]) turned out to be 30%; in [5] (highest dose tested), 24%. The GI50 in [7] (setting [13]) was 1 µM.

The compound `Cc1cn(-c2cc(NC(=O)c3ccc(C)c(Nc4nccc(-c5cccnc5)n4)c3)cc(C(F)(F)F)c2)cn1` [Nilotinib] returned a 50% growth inhibitory concentration (GI50) in [3] of 14 µM.

With `Nc1nc(F)nc2c1ncn2[C@@H]1O[C@H](CO)[C@@H](O)[C@@H]1O` [FluroaraA], the “ES: synergistic effect size” value in assay [6] is recorded as 0.008.

Consider `CCCCCOC(=O)Nc1nc(=O)n([C@@H]2O[C@H](C)[C@@H](O)[C@H]2O)cc1F` [Capecitabine], for which the “ES: synergistic effect size” value in assay [6] was −0.001.

Consider `CCc1c2c(nc3ccc(O)cc13)-c1cc3c(c(=O)n1C2)COC(=O)[C@]3(O)CC` [SN38], for which, in [6], the “ES: synergistic effect size” value was 0.022.

As to `CO[C@H]1C[C@@H]2CC[C@@H](C)[C@@](O)(O2)C(=O)C(=O)N2CCCC[C@H]2C(=O)O[C@H]([C@H](C)C[C@@H]2CC[C@@H](OCCO)[C@H](OC)C2)CC(=O)[C@H](C)/C=C(\C)[C@@H](O)[C@@H](OC)C(=O)[C@H](C)C[C@H](C)/C=C/C=C/C=C/1C` [Everolimus], the Emax in assay [1] (BT549, highest dose tested) stood at 100%; in assay [2] (HS578T, highest dose tested), 41%; in [7] (setting [12]) it was 43%; in assay [3] (MDAMB231, highest dose tested), 40%; in assay [4] (MDAMB468, highest dose tested), 100%; in [5] (highest dose tested), 49%. Also, the GI50 in assay [1] came out at 5.8 µM; in [2] (setting [10]), 0.063 µM; in assay [7] (setting [13]), 0.17 µM; in assay [3], 54 µM; in [4], 0.063 µM; in [5] (setting [11]), 0.052 µM. The “Synergy #” value in assay [8] is on record as 6. In addition, in assay [9], the “Synergistic effect of TAS 108 paired with compound” value is given as “Y”. Further, the “synergy with TAS-108 across the cell line panel (in words)” value in assay [6] is on record as “synergy was consistently found; also recorded: significant synergy”. Moreover, the “ES: synergistic effect size” value in assay [6] came to 0.037.

For `C/C=C1\NC(=O)[C@H]2CSSCC/C=C/[C@H](CC(=O)N[C@H](C(C)C)C(=O)N2)OC(=O)[C@H](C(C)C)NC1=O` [Romidepsin], the Emax was determined as 99.8% in assay [1]; 99.6% in assay [2]; 94% in [7] (MCF7, 72 h); 99.9% in [3]; 99.8% in [4]; 96.7% in [5]. The concentration for 50% growth inhibition (GI50) was 0.0003 µM in [2]; 0.00044 µM in assay [7] (MCF7, 72 h); 0.0011 µM in [5].

As to `CCN(CC)CCNC(=O)c1c(C)[nH]c(/C=C2\C(=O)Nc3ccc(F)cc32)c1C` [Sunitinib], the Emax in assay [1] (BT549, highest dose tested) turned out to be 100%; in assay [2] (HS578T, highest dose tested) it was 65%; in [3] (MDAMB231, highest dose tested), 99%. For the same compound, the GI50 in assay [1] is 4.2 µM; in [2] (setting [10]), 6.9 µM; in [3], 5.6 µM; in assay [4], 21 µM.

Consider `O=c1[nH]c(=O)n([C@H]2C[C@H](O)[C@@H](CO)O2)cc1F` [Floxuridine], for which the “ES: synergistic effect size” value in assay [6] is on record as −0.016.

Regarding `Nc1ccn([C@@H]2O[C@H](CO)[C@@H](O)C2(F)F)c(=O)n1` [Gemcitabine], in assay [6], the “ES: synergistic effect size” value is on record as −0.007.

For `O=C(c1ccc(OCCN2CCCCC2)cc1)c1c(-c2ccc(O)cc2)sc2cc(O)ccc12` [Raloxifene], in assay [7] (setting [12]), the Emax was 27%. In addition, in assay [7] (setting [13]), the GI50 was determined as 25 µM.

As to `CC[C@]1(O)C[C@H]2CN(CCc3c([nH]c4ccccc34)[C@@](C(=O)OC)(c3cc4c(cc3OC)N(C=O)[C@H]3[C@@](O)(C(=O)OC)[C@H](OC(C)=O)[C@]5(CC)C=CCN6CC[C@]43[C@@H]65)C2)C1` [Vincristine], the “ES: synergistic effect size” value in assay [6] came out at 0.023.

Consider `Cc1ccc(NC(=O)c2ccc(CN3CCN(C)CC3)cc2)cc1Nc1nccc(-c2cccnc2)n1` [Imatinib], for which the GI50 in [1] amounted to 29 µM; in assay [3], 26 µM. Besides, the Emax in assay [3] (MDAMB231, highest dose tested) worked out at 91%.

On to `C#Cc1cccc(Nc2ncnc3cc(OCCOC)c(OCCOC)cc23)c1` [Erlotinib], for which the Emax in assay [4] (MDAMB468, highest dose tested) was 34%. The compound also displayed a GI50 in assay [4] of 76 µM.

The values above are taken from patent US20130231292A1, “Synergistic anti-proliferation activity of TAS-108 with mTOR inhibitors against cancer cells” (priority 2012, published 2013).
